For 17 molecules, IC50 results are on record in patent US11040028B2, “Penicinotam derivative, preparation method and use thereof” (OCEAN UNIVERSITY OF CHINA, priority 2017, dated 2021).

Usually IC50 stands for the concentration at which inhibition is half-maximal.

What all share (assay type): cell-based
One test deals with BHK-21 cells. Put plainly: Anti-fibrosis activity test: inhibition of BHK-21 cell proliferation (CCK-8). Conditions: Mesocricetus auratus, BHK-21, 48 h, CCK-8, 48 hours after administration. The essentials: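 Proliferation inhibition was read as CCK-8 absorbance at 450 nm (2-hour development) relative to untreated blank, with IC50 fitted from the curve. Before that, adhered cells (2×10^4 cells/mL, 24 hours) had 48 hours' treatment at several concentrations, in triplicate, at 37° C/5% CO2; pirfenidone was the reference.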

Test [1] deals with human lung fibroblasts HFL1. As to the kind of experiment: Anti-fibrosis activity test: inhibition of proliferation of human lung fibroblasts HFL1 (CCK-8). The settings on record: Homo sapiens, HFL1, 48 h, human lung fibroblasts HFL1, CCK-8, 48 hours. The essentials: (§1)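 48 h compound treatment of fibroblast-type cells seeded at 2×10^4 cells/mL, 37° C, 5% CO2; viability by CCK-8 (2 h, A450). Inhibition rate calculated against blank control, IC50 by curve fitting; pirfenidone served as reference.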

In test [2] the test system is human hepatic stellate cells LX-2. Put plainly: Anti-fibrosis activity test: inhibition of proliferation of human hepatic stellate cells LX-2 (CCK-8). Conditions: Homo sapiens, 48 h, human hepatic stellate cells LX-2, CCK-8, 48 hours. The essentials:
as §1

For test [3], the system named is human fibrosarcoma cells HT-1080. Put plainly: Anti-fibrosis activity test: inhibition of proliferation of human fibrosarcoma cells HT-1080 (CCK-8). The settings on record: Homo sapiens, HT-1080, 48 h, human fibrosarcoma cells HT-1080, CCK-8, 48 hours. An outline of the steps: as §1
Test [4] concerns human dermal fibroblasts CCC-ESF-1. Put plainly: Anti-fibrosis activity test: inhibition of proliferation of human dermal fibroblasts CCC-ESF-1 (CCK-8). Conditions: Fibroblast; human dermal fibroblasts CCC-ESF-1, CCK-8, 48 hours. An outline of the steps: as §1
Test [5] concerns human embryonic lung fibroblast IMR-90. Put plainly: Anti-fibrosis activity test: inhibition of proliferation of human embryonic lung fibroblast IMR-90 (CCK-8). Conditions: human embryonic lung fibroblast IMR-90, CCK-8, 48 hours. An outline of the steps:
as §1

Test [6] relates to cardiac fibroblast RAT-iCell-C002. Put plainly: Anti-fibrosis activity test: inhibition of proliferation of cardiac fibroblast RAT-iCell-C002 (CCK-8). Conditions: Cardiac fibroblast, 48 h, cardiac fibroblast RAT-iCell-C002, CCK-8, 48 hours. The essentials: as §1
A further test relates to NF-κB. As to the kind of experiment: Immunological activity test: inhibition of NF-κB activity. The settings on record: initial concentration of 30 μM; a/b isomers given as first/second symbol; read-out: IC50 (μM), inhibitory activity against NF-κB. An excerpt:
Main references for immunological activity test of the compounds of the present application includes: Vogl, S.; Atanasov, A. G.; Binder, M.; Bulusu, M.; Zehl, M.; Fakhrudin, N.; Heiss, E. H.; Picker, P.; Wawrosch, C.; Saukel, J.; Reznicek, G.; Urban, E.; Bochkov, V.; Dirsch, V. M.; Kopp, B. J. Evid-Based Complementary Alern. Med. 2013, ID 395316. Commercially available parthenolide was utilized as a positive control.
The ability of the compounds of the present application to inhibit NF-κB activity was tested at an initial concentration of 30 μM.
The assay data for the compounds of the present application were further analyzed to determine their IC50 values.

`CC(C)Oc1c2c(nc3ccccc13)-c1cccn1C2=O` [Compound 5b, 9-isopropoxy-10H-pyrrolizino[1,2-b]quinolin-10-one]: the IC50 was 0.05 to 5 mM in the test on BHK-21 cells; 0.05 to 5 mM in test [1]; 5 to 20 mM in test [2]; 5 to 20 mM in test [3]; 0.05 to 5 mM in test [4]; 0.05 to 5 mM in test [5]. Besides, the half-maximal inhibitory concentration (IC50) in test [6] was in the range of 0.05 to 5 mM; in the test on NF-κB it was 10 to 50 µM.
Turning to `CC(C)CCn1c2c(c(=O)c3ccccc31)C(=O)n1cccc1-2` [Compound 8a, 4-Isopentyl-9H-pyrrolizino[1,2-b]quinoline-9,10(4H)-dione], the IC50 in the test on BHK-21 cells was in the range of 5 to 20 mM; in test [1], 0.05 to 5 mM; in test [2], 0.05 to 5 mM; in test [3] it was 0.05 to 5 mM; in test [4] it was 0.05 to 5 mM; in test [5], 5 to 20 mM. For the same molecule, the IC50 fell in the range of 0.05 to 5 mM in test [6] and 10 to 50 µM in the test on NF-κB.
`CC(C)CCOc1c2c(nc3ccccc13)-c1cccn1C2=O` [Compound 8b, 9-(isopentyloxy)-10H-pyrrolizino[1,2-b]quinolin-10-one]: the IC50 (in the test on BHK-21 cells; in test [1]; in test [2]; in test [3]; in test [4]; in test [5]) was 0.05 to 5 mM each time. The IC50 was 0.05 to 5 mM in test [6] and 10 to 50 µM with NF-κB.
With `CC(C)=CCn1c2c(c(=O)c3ccccc31)C(=O)n1cccc1-2` [Compound 9a, 4-(3-Methylbut-2-en-1-yl)-9H-pyrrolizino[1,2-b]quinoline-9,10(4H)-dione], the IC50 in the test with BHK-21 cells lay in the range of 20 to 100 mM; in test [1], 0.05 to 5 mM; in test [2] it was 0.05 to 5 mM; in test [3] it was 0.05 to 5 mM; in test [4], 5 to 20 mM; in test [5], 0.05 to 5 mM. The IC50 was 0.05 to 5 mM in test [6] and 1 to 10 µM in the test with NF-κB.
As to `CC(C)=CCOc1c2c(nc3ccccc13)-c1cccn1C2=O` [Compound 9b, 9-((3-methylbut-2-en-1-yl)oxy)-10H-pyrrolizino[1,2-b]quinolin-10-one], the IC50 in the test on BHK-21 cells was 5 to 20 mM; in test [1], 0.05 to 5 mM; in test [2], 0.05 to 5 mM; in test [3], 0.05 to 5 mM; in test [4], 5 to 20 mM; in test [5], 0.05 to 5 mM. Further, the values for the IC50 (in test [6]; in the test with NF-κB) were 0.05 to 5 mM and 1 to 10 µM, respectively.
Take `O=C1c2c(n(-c3ccc(F)cc3)c3ccccc3c2=O)-c2cccn21` [Compound 18a, 4-(4-Fluorophenyl)-9H-pyrrolizino[1,2-b]quinoline-9,10(4H)-dione]: the IC50 with BHK-21 cells is below 0.05 mM; in test [1], 0.05 to 5 mM; in test [2] it was 5 to 20 mM; in test [3] it was 0.05 to 5 mM; in test [4], 0.05 to 5 mM; in test [5], 0.05 to 5 mM. Besides, the results for the IC50 (in test [6]; with NF-κB) were 0.05 to 5 mM and 0.1 to 1 µM, respectively.
In the case of `O=C1c2c(nc3ccccc3c2Oc2ccc(F)cc2)-c2cccn21` [Compound 18b, 9-(4-fluorophenoxy)-10H-pyrrolizino[1,2-b]quinolin-10-one], the IC50 (with BHK-21 cells; in test [1]; in test [2]; in test [3]; in test [4]; in test [5]) was 0.05 to 5 mM each time. Further, the values for the concentration for half-maximal inhibition (IC50) (in test [6]; in the test on NF-κB) were 0.05 to 5 mM and 1 to 10 µM, respectively.
On to `O=C1c2c(n(-c3ccc(Cl)cc3)c3ccccc3c2=O)-c2cccn21` [Compound 34a, 4-(4-Chlorophenyl)-9H-pyrrolizino[1,2-b]quinoline-9,10(4H)-dione], for which the half-inhibitory concentration (IC50) with BHK-21 cells is below 0.05 mM; in test [1] it was 0.05 to 5 mM; in test [2], 0.05 to 5 mM; in test [3] it was 0.05 to 5 mM; in test [4] it was 5 to 20 mM; in test [5] it was 0.05 to 5 mM. The figures for the concentration for half-maximal inhibition (IC50) (in test [6]; in the test with NF-κB) were 0.05 to 5 mM and 0.1 to 1 µM, respectively.
In the case of `O=C1c2c(nc3ccccc3c2Oc2ccc(Cl)cc2)-c2cccn21` [Compound 34b, 9-(4-chlorophenoxy)-10H-pyrrolizino[1,2-b]quinolin-10-one], the IC50 in the test on BHK-21 cells was 0.05 to 5 mM; in test [1], 0.05 to 5 mM; in test [2] it was 0.05 to 5 mM; in test [3], 0.05 to 5 mM; in test [4], below 0.05 mM; in test [5], 0.05 to 5 mM. Also, the IC50 was in the range of 0.05 to 5 mM in test [6] and 1 to 10 µM with NF-κB.
For `O=C1c2c(n(-c3ccc(Br)cc3)c3ccccc3c2=O)-c2cccn21` [Compound 64a, 4-(4-Bromophenyl)-9H-pyrrolizino[1,2-b]quinoline-9,10(4H)-dione], the IC50 (with BHK-21 cells; in test [1]; in test [2]; in test [3]; in test [4]; in test [5]) was 0.05 to 5 mM each time. The IC50 is 0.05 to 5 mM in test [6] and 1 to 10 µM in the test with NF-κB.
For `O=C1c2c(nc3ccccc3c2Oc2ccc(Br)cc2)-c2cccn21` [Compound 64b, 9-(4-bromophenoxy)-10H-pyrrolizino[1,2-b]quinolin-10-one], the concentration for half-maximal inhibition (IC50) (in the test on BHK-21 cells; in test [1]; in test [2]; in test [3]; in test [4]; in test [5]) was 0.05 to 5 mM in each case. Besides, the values for the IC50 (in test [6]; in the test with NF-κB) were 0.05 to 5 mM and 1 to 10 µM, respectively.
In the case of `N#Cc1ccc2c(=O)c3c(n(Cc4ccc(F)cc4)c2c1)-c1cccn1C3=O` [Compound 514a, 4-(4-Fluorobenzyl)-9,10-dioxo-4,10-dihydro-9H-pyrrolizino[1,2-b]quinoline-6-carbonitrile], the IC50 in the test with BHK-21 cells was below 0.05 mM; in test [1], 0.05 to 5 mM; in test [2], 0.05 to 5 mM; in test [3], 0.05 to 5 mM; in test [4] it was 0.05 to 5 mM; in test [5], 0.05 to 5 mM. The IC50 in test [6] was 0.05 to 5 mM; in the test with NF-κB it was 1 to 10 µM.
Turning to `N#Cc1ccc2c(OCc3ccc(F)cc3)c3c(nc2c1)-c1cccn1C3=O` [Compound 514b, 9-((4-fluorobenzyl)oxy)-10-oxo-10H-pyrrolizino[1,2-b]quinoline-6-carbonitrile], the IC50 (in the test on BHK-21 cells; in test [1]; in test [2]; in test [3]; in test [4]; in test [5]) was 0.05 to 5 mM throughout. Also, the IC50 lay in the range of 0.05 to 5 mM in test [6] and 1 to 10 µM with NF-κB.
In the case of `N#Cc1ccc2c(=O)c3c(n(Cc4cccc(F)c4)c2c1)-c1cccn1C3=O` [Compound 515a, 4-(3-Fluorobenzyl)-9,10-dioxo-4,10-dihydro-9H-pyrrolizino[1,2-b]quinoline-6-carbonitrile], the IC50 with BHK-21 cells lay within 0.05 to 5 mM; in test [1] it was 0.05 to 5 mM; in test [2], 0.05 to 5 mM; in test [3] it was 5 to 20 mM; in test [4], 0.05 to 5 mM; in test [5] it was 0.05 to 5 mM. The IC50 in test [6] was 0.05 to 5 mM; in the test on NF-κB, 1 to 10 µM.
Take `N#Cc1ccc2c(OCc3cccc(F)c3)c3c(nc2c1)-c1cccn1C3=O` [Compound 515b, 9-((3-fluorobenzyl)oxy)-10-oxo-10H-pyrrolizino[1,2-b]quinoline-6-carbonitrile]: the IC50 with BHK-21 cells lay within 0.05 to 5 mM; in test [1], 0.05 to 5 mM; in test [2], 0.05 to 5 mM; in test [3], 5 to 20 mM; in test [4], 0.05 to 5 mM; in test [5], 5 to 20 mM. Further, the IC50 in test [6] was below 0.05 mM; with NF-κB it was 1 to 10 µM.
With `N#Cc1ccc2c(=O)c3c(n(Cc4ccccc4F)c2c1)-c1cccn1C3=O` [Compound 516a, 4-(2-Fluorobenzyl)-9,10-dioxo-4,10-dihydro-9H-pyrrolizino[1,2-b]quinoline-6-carbonitrile], the IC50 in the test on BHK-21 cells is below 0.05 mM; in test [1], 0.05 to 5 mM; in test [2], 0.05 to 5 mM; in test [3], 0.05 to 5 mM; in test [4] it was 0.05 to 5 mM; in test [5], 0.05 to 5 mM. Also, the IC50 is 0.05 to 5 mM in test [6] and 0.1 to 1 µM in the test with NF-κB.
`N#Cc1ccc2c(OCc3ccccc3F)c3c(nc2c1)-c1cccn1C3=O` [Compound 516b, 9-((2-fluorobenzyl)oxy)-10-oxo-10H-pyrrolizino[1,2-b]quinoline-6-carbonitrile]: the IC50 (with BHK-21 cells; in test [1]; in test [2]; in test [3]; in test [4]; in test [5]) was 0.05 to 5 mM each time. Further, the values for the IC50 (in test [6]; in the test on NF-κB) were 0.05 to 5 mM and 0.1 to 1 µM, respectively.
